Experimental data reported in paper PMC8875489, “Pharmaceutical and Safety Profile Evaluation of Novel Selenocompounds with Noteworthy Anticancer Activity” (Pharmaceutics, 2022).
“Also recorded” adds a separate entry of the source.

Columns and labels:
[1] = test system: human liver microsomes (HLMs); assay: In vitro microsomal biotransformation test with TRIS buffer and solvent controls (LC-MS/MS); format: in vitro ADME; settings: for stability in DMSO: organic solvent, LC-MS/MS
Experimental: The assessment of the metabolites generated in the in vitro microsomal biotransformation of the selenoester EDA-71 in liver microsomes was performed following a previously described protocol with minor modifications. Only this compound was evaluated because it combined an optimal solubility to be analyzed in this procedure with very significant activity. The protocol is provided in full detail in the Supplementary Materials. Briefly, the compound was exposed to microsomes for 2 h, and the mixture was later analyzed with LC–MS/MS to detect the generated metabolites.
In the next step of the research, a biochemical in vitro method with the use of human liver microsomes (HLMs) was applied to determine the metabolic activity of the compound EDA-71. This human liver microsomal model provides all the enzymes required for the phase I metabolism reactions (hydrolysis, oxidation, and reduction). Moreover, it is also possible, in certain conditions following the addition of all necessary cofactors, to conduct metabolism II phase reactions (glutathione transferase and N-acetyltransferase enzymatic reactions). In the drug discovery process, the microsomal is a standard in vitro method for the metabolism evaluation. Additionally, this assay can predict the biotransformation kinetics and intrinsic clearance of new derivatives. Finally, these biotransformation processes can be easily monitored with LC–MS/MS.
The NADPH-regenerating system, which contained a phosphate buffer (pH = 7.4; NADP^+, glucose-6-phosphate, and glucose-6-phosphate dehydrogenase), was used. The biotransformation process was monitored with the LC–MS/MS method at the end of the procedure at 2 h after the incubation.
This experimental fact prevented the detailed analysis of metabolic stability. […] Thus, the tested compounds were dissolved in DMSO immediately before the experiment to minimize the degradation risk. […]
1.4. In vitro metabolic stability evaluation in microsomes
1.4.1. Microsomal metabolic stability protocol
For the microsomal stability assay, the selenoester EDA-71 was selected. Before the experimental procedure, the HLMs and solutions necessary for preparing the regenera-tion fraction were stored at -80° C and TRIS buffer at 4° C. The NADP+ regeneration frac-tion was prepared freshly, at the day of the experiment.
1.4.2. Preparation of the working solutions and microsomal regeneration fraction In the first step of the experiment, after selection of the compounds, the 1000 μM working solution was prepared in the TRIS buffer (0.1 M, pH 7.5) from the 10 mM stocks in DMSO. Then, the fresh regeneration fraction was prepared from the 220 μL TRIS buffer, 25 μL of the “A” solution and 5 μL of the “B” solution.
1.4.3. Human liver microsomes and solvent controls
Further, two controls have been prepared: solvent control (142 μL of TRIS buffer with 8 μL of HLMs, 50 μL of the regeneration fraction and 200 μL of the pure methanol) and tested compound control (190 μL of TRIS buffer with 10 μL of the 1 mM tested compound solution and 200 μL of methanol). The biotransformation was carried out at the precise concentration of 1 mg/mL of HLMs.
1.4.4. Biotransformation performance
In the next step 132 μL of TRIS buffer were added into a sterile eppendorf. After that, 10 μL of 1000 μM solution of tested compound in TRIS buffer were added to the above-mentioned eppendorf and then, 8 μL of HLMs. The final concentration of tested com-pound was 50 μM. After gently mixing on the vortex, reaction mixture was preincubated for 5 minutes at 37° C on the thermoblock. Then, in the further step, the reaction was ini-tiated by adding 50 μL of the NADP+ regeneration fraction and incubated at 37° C for 2 h.
After that time, to terminate the reaction, the 200 μL of pure, cold methanol (for LC-MS/MS analysis) was added to probe, which contained the tested compound with HLMs.
Moreover, the same amount of cold methanol was added into the control sample with […]

[2] = test system: Salmonella Typhimurium TA100 strain; assay: Reference experiment: impact on Salmonella Typhimurium growth (OD600); format: cell-based, Salmonella enterica serovar Typhimurium; settings: 1 and 10 µM, 20 h, 37 °C
Experimental: Therefore, a reference experiment with 20 h of incubation at constant temperature conditions (37 °C) was performed in order to determine the effect of the tested compounds on the growth of the Salmonella Typhimurium used in the Ames test. […] Therefore, this method could be successfully applied to determine the safety profile of the tested derivatives.
it indicated the occurrence of cytotoxic events.
Salmonella Typhimurium growth
microplate assay. During the experiment, Salmonella Typhimurium TA100 strain was cul-
At the day of the experiment,
tions of 25 μM and 250 μM) respectively. The final compound and mutagenic agent con-
References in Supplementary (same numeration than in manuscript)
Appl Biochem Biotechnol, 2018, 184(1), 124-139.
Karczewska, E.; Kieć-Kononowicz, K.; Handzlik, J.; Jacob, C. Pronounced activity of aromatic selenocyanates against multidrug
Chem Biol Drug Res, 2017, 90(6), 1295-1306.
Drug Des Devel Ther, 2016,
icity of Environmental Samples. Environ Mol Mutagen, 2010, 51(1), 31-38.
stranded DNA is characterized by guanine to pyrimidine transversions. Nucleic Acids Res, 1992, 20(6), 1283-1287.

Structure (SMILES) | stability in DMSO [1] | stability in TRIS buffer and LC-MS/MS analysis conditions ([1]; TRIS buffer pH = 7.4, control of microsomal assay) | effect on the growth of Salmonella Typhimurium [2]
COC(=O)C[Se]C(=O)c1cc(OC)cc(OC)c1 [EDA-58, methyl 2-((3,5-dimethoxybenzoyl)selanyl)acetate] | stable |  | 
CC(=O)C[Se]C(=O)c1ccc(Cl)cc1 [EDA-71, Se-(2-oxopropyl) 4-chlorobenzoselenoate] | stable | may not be stable; also recorded: unstable | 
C[Se]C(=O)c1ccc(C(=O)[Se]C)cc1 [EDA-109, Se,Se-dimethyl benzene-1,4-bis(carboselenoate)] |  |  | stimulating effect on the growth
C[Se]C(=O)c1cccc(C(=O)[Se]C)n1 [EDA-119, Se,Se-dimethyl pyridine-2,6-bis(carboselenoate)] | stable |  | 
C[Se]C(=O)c1ccc(C(=O)[Se]C)s1 [EDA-122, Se,Se-dimethyl thiophene-2,5-bis(carboselenoate)] | stable |  | 
O=C1[Se]C(=O)c2ccccc21 [EDA-A6, benzo[c]selenophene-1,3-dione] | stable |  | 
